Converted amounts (≈) assume the structure as drawn.
What was measured:
[1] = Antiproliferative activity against human COLO205 cells after 72 hrs by Celltiter-Glo luminescent cell viability assay; format: functional, cell-based; conditions: COLO 205, 72 h
Pseudomonas aeruginosa [2] = assay: Potency index, ratio of Ac-GF-Tic-Oic-GK-Tic-Oic-GF-Tic-Oic-GK-Tic-KKKK-CONH2 MIC to compound MIC for Pseudomonas aeruginosa Boston 41501 ATCC 27853; format: functional
RL = assay: Antiproliferative activity against human RL cells after 72 hrs by Celltiter-Glo luminescent cell viability assay; format: functional, cell-based
Pseudomonas aeruginosa [3] = assay: Antibacterial activity against Pseudomonas aeruginosa Boston 41501 ATCC 27853 by two fold serial dilution method; format: functional
A549 = assay: Antiproliferative activity against human A549 cells after 72 hrs by Celltiter-Glo luminescent cell viability assay; format: functional, cell-based; conditions: A549, 72 h
MCF7 = assay: Antiproliferative activity against human MCF7 cells after 72 hrs by Celltiter-Glo luminescent cell viability assay; format: functional, cell-based; conditions: MCF7, 72 h
Staphylococcus aureus [4] = assay: Antibacterial activity against Staphylococcus aureus Seattle 1945 ATCC 25923 by two fold serial dilution method; format: functional
[5] = Antibacterial activity against carbapenem-resistant Klebsiella pneumoniae K6 ATCC 700603 by two fold serial dilution method; format: functional, Klebsiella pneumoniae 700603
Acinetobacter baumannii [6] = assay: Antibacterial activity against Acinetobacter baumannii B5W71 ATCC 15149 by two fold serial dilution method; format: functional
Klebsiella aerogenes [7] = assay: Antibacterial activity against carbapenem-resistant Enterobacter aerogenes NCDC819-56 ATCC 13048 by two fold serial dilution method; format: functional
[8] = Antibacterial activity against Bacillus anthracis Ames NR-3838 by two fold serial dilution method; format: functional, Bacillus anthracis str. Ames
[9] = Antiproliferative activity against human DLD1 cells after 72 hrs by Celltiter-Glo luminescent cell viability assay; format: functional, cell-based; conditions: DLD-1, 72 h
[10] = Antiproliferative activity against human UACC62 cells after 72 hrs by Celltiter-Glo luminescent cell viability assay; format: functional, cell-based; conditions: UACC-62, 72 h
[11] = (§1) Antibacterial activity against Salmonella enterica LT2 Typhimurium ATCC 15277 by two fold serial dilution method; format: functional
[12] = system: Burkholderia pseudomallei; assay: Antibacterial activity against Burkholderia pseudomallei AHS 1 NCTC 8016 by two fold serial dilution method; format: functional
Klebsiella aerogenes [13] = assay: Potency index, ratio of Ac-GF-Tic-Oic-GK-Tic-Oic-GF-Tic-Oic-GK-Tic-KKKK-CONH2 MIC to compound MIC for carbapenem-resistant Enterobacter aerogenes NCDC819-56 ATCC 13048; format: functional; conditions: pooled result: one value given for 3 cell lines, strains, targets or settings
CFPAC-1 = assay: Antiproliferative activity against human CFPAC-1 cells after 72 hrs by Celltiter-Glo luminescent cell viability assay; format: functional, cell-based; conditions: CFPAC-1, 72 h
Enterococcus faecium = assay: Potency index, ratio of Ac-GF-Tic-Oic-GK-Tic-Oic-GF-Tic-Oic-GK-Tic-KKKK-CONH2 MIC to compound MIC for Enterococcus faecium; format: functional
Acinetobacter baumannii [14] = assay: Potency index, ratio of Ac-GF-Tic-Oic-GK-Tic-Oic-GF-Tic-Oic-GK-Tic-KKKK-CONH2 MIC to compound MIC for Acinetobacter baumannii B5W71 ATCC 15149; format: functional
[15] = system: Mycobacterium tuberculosis; assay: Antibacterial activity against Mycobacterium tuberculosis H37Ra ATCC 2517 by two fold serial dilution method; format: functional
[16] = Antibacterial activity against Yersinia pestis CO92 NR641 by two fold serial dilution method; format: functional
[17] = Antibacterial activity against Francisella tularensis SCHU S4 NR-643 by two fold serial dilution method; format: functional
Neisseria gonorrhoeae = assay: Antibacterial activity against Neisseria gonorrhoeae F-18 ATCC 49226 by two fold serial dilution method; format: functional
NCI-H69 = assay: Antiproliferative activity against human NCI-H69 cells after 72 hrs by Celltiter-Glo luminescent cell viability assay; format: functional, cell-based; conditions: NCI-H69, 72 h
[18] = Antibacterial activity against Clostridium difficile VIP 10463 ATCC 43255 by two fold serial dilution method; format: functional, Clostridium difficile ATCC 43255; conditions: Clostridioides difficile
Streptococcus pneumoniae = assay: Antibacterial activity against Streptococcus pneumoniae 262 ATCC 49619 by two fold serial dilution method; format: functional
[19] = Antiproliferative activity against human IGROV1 cells after 72 hrs by Celltiter-Glo luminescent cell viability assay; format: functional, cell-based; conditions: IGROV-1, 72 h
[20] = Antiproliferative activity against human PC3 cells after 72 hrs by Celltiter-Glo luminescent cell viability assay; format: functional, cell-based; conditions: PC-3, 72 h
Enterococcus faecalis = assay: Antibacterial activity against Enterococcus faecalis Portland ATCC 29212 by two fold serial dilution method; format: functional; conditions: ATCC 29212 Portland
Staphylococcus aureus [21] = assay: Antibacterial activity against methicillin-resistant Staphylococcus aureus USA 300 NRS 384 by two fold serial dilution method; format: functional
A498 = assay: Antiproliferative activity against human A498 cells after 72 hrs by Celltiter-Glo luminescent cell viability assay; format: functional, cell-based; conditions: A498, 72 h
[22] = Antiproliferative activity against human MIAPaCa2 cells after 72 hrs by Celltiter-Glo luminescent cell viability assay; format: functional, cell-based; conditions: MIA PaCa-2, 72 h
[23] = system: Salmonella enterica subsp. enterica serovar Typhimurium str. LT2; assay: as §1; format: functional

## CC(=O)NCC(=O)N[C@@H](Cc1ccccc1)C(=O)NC1(C(=O)NCC(=O)N2Cc3ccccc3CC2C(=O)N[C@H](CCCCN)C(=O)NC2(C(=O)NCC(=O)N3Cc4ccccc4CC3C(=O)N[C@H](Cc3ccccc3)C(=O)NC3(C(=O)NCC(=O)N4Cc5ccccc5CC4C(=O)NCC(=O)N[C@H](CCCCN)C(=O)N4Cc5ccccc5CC4C(=O)N[C@H](CCCCN)C(=O)N[C@H](CCCCN)C(=O)N[C@H](CCCCN)C(=O)N[C@H](CCCCN)C(N)=O)CCCCC3)CCCCC2)CCCCC1 (stereo partly specified)
[1]
  IC50: > 7.5 µM
Pseudomonas aeruginosa [2]
  Ratio: 0.2582
RL
  IC50: 6.8 µM
Pseudomonas aeruginosa [3]
  MIC: 10.3 µM (≈ 25 µg/mL)
A549
  IC50: > 7.5 µM
MCF7
  IC50: > 7.5 µM
Staphylococcus aureus [4]
  MIC: > 43 µM
[5]
  MIC: > 43 µM
Acinetobacter baumannii [6]
  MIC: > 45 µM
Klebsiella aerogenes [7]
  MIC: > 43 µM
[8]
  MIC: 10.3 µM (≈ 25 µg/mL)
[9]
  IC50: > 7.5 µM
[10]
  IC50: > 7.5 µM
[11]
  MIC: 5.17 µM (≈ 12.5 µg/mL)
[12]
  MIC: > 43 µM
Klebsiella aerogenes [13]
  Ratio: 1.075
CFPAC-1
  IC50: > 7.5 µM
Enterococcus faecium
  Ratio: 4.3
Acinetobacter baumannii [14]
  Ratio: 17.2
[15]
  MIC: 10.3 µM (≈ 25 µg/mL)
[16]
  MIC: > 43 µM
[17]
  MIC: 20.7 µM (≈ 50 µg/mL)
Neisseria gonorrhoeae
  MIC: 41.3 µM (≈ 100 µg/mL)
NCI-H69
  IC50: > 7.5 µM
[18]
  MIC: 2.58 µM (≈ 6.24 µg/mL)
Streptococcus pneumoniae
  MIC: > 43 µM
[19]
  IC50: > 7.5 µM
[20]
  IC50: > 7.5 µM
Enterococcus faecalis
  MIC: > 43 µM
Staphylococcus aureus [21]
  MIC: > 43 µM
A498
  IC50: > 7.5 µM
[22]
  IC50: > 7.5 µM

## GENTAMICIN
Pseudomonas aeruginosa [3]
  MIC: 8.3 µM
Acinetobacter baumannii [6]
  MIC: 2.09 µM
Klebsiella aerogenes [7]
  MIC: 1.04 µM
[23]
  MIC: 2.09 µM
